In one data set the target is T1, CaR (Homo sapiens, UniProt P41180).
T1 construct: host or cells: monocytes
T1 sequence (P41180 20-1078): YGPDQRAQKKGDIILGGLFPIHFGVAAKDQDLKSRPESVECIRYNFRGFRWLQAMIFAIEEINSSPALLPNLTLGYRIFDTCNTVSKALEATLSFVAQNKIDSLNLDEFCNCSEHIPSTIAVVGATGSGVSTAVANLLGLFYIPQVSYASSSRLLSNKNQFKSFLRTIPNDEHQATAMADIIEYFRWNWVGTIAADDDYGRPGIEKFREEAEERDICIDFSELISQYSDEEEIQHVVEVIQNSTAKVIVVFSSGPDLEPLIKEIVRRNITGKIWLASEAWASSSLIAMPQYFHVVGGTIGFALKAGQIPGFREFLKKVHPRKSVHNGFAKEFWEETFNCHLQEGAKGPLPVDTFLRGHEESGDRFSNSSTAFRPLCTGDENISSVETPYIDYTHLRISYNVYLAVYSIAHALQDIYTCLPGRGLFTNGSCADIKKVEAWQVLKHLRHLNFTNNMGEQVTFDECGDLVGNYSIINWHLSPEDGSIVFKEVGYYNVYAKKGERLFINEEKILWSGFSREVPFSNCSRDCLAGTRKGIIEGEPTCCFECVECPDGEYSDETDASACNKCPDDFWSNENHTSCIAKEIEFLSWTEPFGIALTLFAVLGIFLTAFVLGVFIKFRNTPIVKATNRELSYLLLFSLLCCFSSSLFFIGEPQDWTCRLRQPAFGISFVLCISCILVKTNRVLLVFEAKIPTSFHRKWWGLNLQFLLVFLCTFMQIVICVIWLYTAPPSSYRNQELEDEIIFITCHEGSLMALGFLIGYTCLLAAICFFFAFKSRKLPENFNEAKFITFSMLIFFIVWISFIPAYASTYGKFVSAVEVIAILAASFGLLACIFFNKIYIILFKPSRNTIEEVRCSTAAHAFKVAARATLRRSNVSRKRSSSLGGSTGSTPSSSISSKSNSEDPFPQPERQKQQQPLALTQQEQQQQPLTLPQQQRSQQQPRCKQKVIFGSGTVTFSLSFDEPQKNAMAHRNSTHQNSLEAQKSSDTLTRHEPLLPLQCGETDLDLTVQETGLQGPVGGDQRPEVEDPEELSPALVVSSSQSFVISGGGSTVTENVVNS
The note with it: activation of CaR; Olszak et al., 2000; cited from earlier work.

A further data set concerns bone marrow stem cells. The conditions noted are these: Tayaramma et al., 2006; cited from earlier work.
The next data set deals with HDAC. The note with it: Vigushin et al., 2001, cited from earlier work.
For data set [1], the system named is Lin− cells. Briefly: Cell death in 2nd stage induction culture. It counts as cell-based, mouse. The conditions noted are these: about 15 nM, 6 hr in the 2nd stage. From the text: Use of HDAC inhibitors may take into account the fact that high dose and/or long period of HDAC inhibition may induce widespread changes in gene expression. For example, treatment of metanephric organs cultures with HDAC inhibitor induces significant disturbance in the transcription network (Chen et al., 2007).

The test system of data set [2] is Lin− cells. The data set can be described thus: qRT-PCR of renal developmentally regulated genes in induced cells. In kind it is cell-based, mouse. The conditions noted are these: TSA 15 nM, 6 h at 2nd stage vs vehicle, cells after 3rd stage. The protocol: Lin^− cells, which include lineage undifferentiated hematopoietic stem cells and progenitor cells, were isolated to 99.8% purity by FACS as described (Lin et al., 2003). Purified Lin^− cells were cultured sequentially in the presence of cytokines including IL-3, IL-6, and stem cell factor for 48 hr (1st stage); nephrogenic factors including retinoic acid, activin-A and BMP7 for 48 hr (2nd stage); and epithelial growth factors including EGF, IGF-1 and HGF for 72 hr (3rd stage). The total induction period is 1 week. Cytokine treatment is known to stimulate HSC to enter the cell cycle and the cells remain as hematopoietic cells after 48 hr in these culture conditions (Luskey et al., 1992; Reddy et al., 1997). The nephrogenic factors that were used can induce differentiation of mouse ES cells into renal epithelial cells as reported by Kim and Dressler (2005). Therefore, the inventors reasoned that nephrogenic factors might induce cycling Lin^− cells to select a renal cell fate. Further treatment of the cells with epithelial growth factors would promote epithelial growth. After the 1st stage, the cells remained small, round, and discrete (FIG. 5B, top left). After the 3rd stage, the cells increased in size and formed floating spheres (FIG. 5B, top right). The inventors took the precaution of only transferring cells in suspension to new culture dishes. The adherent cells that might represent bone marrow stromal/stem cells (MSC) were discarded. In some experiments, the inventors continued the cultures for an additional 7 days after the induction period (total 14 days) and observed an epithelial-like morphology in the cells (FIG. 5B, bottom). In the Examples section, the inventors will use the term “induced cells” to refer to cells after the 3rd stage culture (1 week induction).
(§1) The HDAC inhibitor TSA increases expression of renal developmentally regulated genes in induced cells. Although HDAC inhibitor trichostatin A (TSA) is a non-selective inhibitor of HDACs, TSA only alter 2-10% of the genes tested in multiple cell lines (Gray et al., 2004; Lee et al., 2006b; Mitsiades et al., 2004; Peart et al., 2005).
Background: Real-time PCR tracks product formation cycle by cycle.

For data set [3], the system named is cadherin 6, cadherin 16, Lim1, Gdnf and Pax2 promoters. Briefly: ChIP assay of histone acetylation on renal gene promoters. In kind it is cell-based, mouse. The conditions noted are these: TSA 15 nM, 6 h at 2nd stage vs vehicle; ChIP after 3rd stage.
Text: Increased histone acetylation accompanies cell conversion. To begin to understand the mechanisms of cell conversion and its associated nuclear reprogramming, the inventors examined the possibility of epigenetic regulation by histone modifications and chromatin remodeling. Chromatin modifications were detected using chromatin immunoprecipitation assays (ChIP assays) as described (Shang et al., 2000). Antibodies to acetylated histones H3 and H4 and tri-methylated histone H3 (lysine 9 or K9) were used for immunoprecipitation. […] In contrast, there was no change in tri-methylation of H3K9 on the cadherin 6 promoter (top panel). Acetylation of H3 but not H4 on the cadherin 16 promoter was increased after the 3rd stage. Tri-methylation of H3K9 on the cadherin 16 promoter seemed to increase after the 3rd stage.
as §1

Data set [4] deals with Lin− cells isolated from cre^ksp; R26R-EYFP mice. The data set can be described thus: Flow cytometry of EYFP+ cells (renal cell conversion). It counts as cell-based, mouse. The note with it: TSA 15 nM, 6 h at 2nd stage. The protocol:
To confirm renal conversion, Lin^− cells were isolated from bitransgenic creksp; R26R-EYFP mice that express EYFP specifically in the tubular epithelial cells of the kidney. […] However, after the 3rd stage, the induced cells expressed EYFP mRNA by RT-PCR analysis (FIG. 7B) and EYFP protein by immunostaining (FIG. 7C).
Treatment with TSA results in a 6-fold increase in EYFP^+ cells. Lin^− cells isolated from cre^ksp; R26R-EYFP mice were treated with vehicle or TSA (15 nM, 6 h) at the 2nd stage and EYFP^+ cells were quantified by flow cytometry analysis.

For data set [5], the system named is lymphoid cell line / multiple cell lines. The conditions noted are these: cited from earlier work.

Turning to `COc1cccc([C@@H](C)NCCCc2ccccc2)c1` [NPS R-467], on CaR, the “monocyte migration in response to calcium” value is recorded as “increases”.
For `CC(/C=C/C(=O)NO)=C\[C@@H](C)C(=O)c1ccc(N(C)C)cc1` [TSA, trichostatin A], the “differentiation of insulin-producing cells” value in the data set with bone marrow stem cells is “led to differentiation of insulin-producing cells”. Besides, the “IC50 of inhibition of HDAC activity” value with HDAC is given as “nanomolar range”. In addition, the “reversibility of inhibition of HDAC activity” value with HDAC (in cell cultures and in vivo) is listed as “reversible”. In addition, the cell death result in the data set on Lin− cells [1] was “no increase in cell death”. Moreover, in the data set on Lin− cells [2] (*p<0.05, n=3), the “Cdh 6 -Fold increase” value was 16.5* Fold, the “Cdh 16 -Fold increase” value is given as 4.39* Fold, the “Gdnf -Fold increase” value was 5.39* Fold and the “Lim1 -Fold increase” value is recorded as 8.29* Fold. In the data set on Lin− cells [2] (*p<0.05, n=3), the “Osr 1 -Fold increase” value was 14.95* Fold and the “Pax2 -Fold increase” value is listed as 3.28* Fold. The “18s RNA -Fold increase” value in the data set with Lin− cells [2] (control gene, n=3) is on record as −0.06 Fold. Also, the “Six2 -Fold increase” value in the data set on Lin− cells [2] (n=3) was found to be 1.3 Fold. Also, in data set [3], the “histone H3 and H4 acetylation on promoters of renal genes” value is “increased histone H3 and H4 acetylation”. Also, in data set [4], the “increase in EYFP+ cells (cell conversion) vs vehicle” value came to 6 fold. The “EYFP+ cells after the 3rd stage” value in data set [4] (flow cytometry, vehicle group 6.3%) is 37.9%. Further, the “proportion of expressed genes altered” value in data set [5] (340 expressed genes in a lymphoid cell line, Van Lint et al., 1996) was 2%. In addition, in data set [5] (multiple cell lines, literature), the “proportion of genes tested altered” value is 2-10%.

Values taken from patent US20100111908A1, “Induction of Renal Cells for Treatment of Kidney Disease” (priority 2008, published 2010).
